Experimental data reported in US7767674B2, “Kinase inhibitors” (Eli Lilly and Company, priority 2004, dated 2010).

Assays:
p38 kinase enzyme = p38 kinase enzyme (Homo sapiens, UniProt Q16539); assay: Inhibition of p38 kinase (33P-ATP, EGF peptide 661-681 substrate); assay type: biochemical; conditions: 33P-ATP assay, 40 min at 30° C.
Experimental: The kinase buffer solution is prepared by combining 2.5 mL 1M Tris-HCl (pH 7.5), 0.1 mL 1M dithiothreitol, 1.0 mL 1M magnesium chloride, and 300 μL 1% Triton X-100 and diluting to 100 mL with water. 84 mL of this kinase buffer solution is combined with 16 mL DMSO to prepare the 16% DMSO solution.
The 200 μM ATP solution is prepared by adding 102.6 μL 10 mM aqueous ATP, 25 μL ^33P-ATP, and 163.5 μL of 4 mM aqueous Epidermal Growth Factor Peptide 661-681 (Biomol, Catalog #P-121) in 5 mL kinase buffer solution.
The p38 kinase enzyme solution is prepared by dissolving 9.5 μL concentrated enzyme solution (250 ng p38 enzyme/μL kinase buffer solution) in 1536 μL kinase buffer solution.
An 80 μM solution of each test compound and control compound are prepared by dissolving 2 μL of a 10 mM stock solution of the respective compounds in dimethylsulfoxide in 248 μL of the 16% DMSO solution in a Costar 96-well microtiter plate. The plate is placed onto the Tecan Genesis automated liquid handler for 1:3 serial dilutions.
10 μL of serially diluted compound is placed with a Beckman Multimek 96-well automated liquid handler to the assay plate. 20 μL of 200 μM ATP solution is added with a Titertek Multidrop 8-channel liquid handler. 10 μL of p38 kinase enzyme solution is transferred to the assay plate using the Multimek. The mixture is allowed to react for 40 min at 30° C. and then the reaction is stopped by adding 60 μL of freshly prepared 5% glacial AcOH with Multidrop. 80 μL of this solution is transferred to an “MAPH” plate using the Multimek. The plates are allowed to set for 30 min at room temperature and then washed/aspirated on the Titertek MAP extractor with freshly prepared 0.5% glacial AcOH (1×300 μL, 2×200 μL). […] The plates are allowed to sit for 30 min and counted on a PE/Wallac Microbeta Trilux scintillation counter for ^33P-isotope.
All exemplified compounds are initially tested at 10 concentrations (20 μM-1 nM using 1:3 serial dilutions). […] IC50 values are calculated (IDBS ActivityBase software) for each compound using non-linear regression. […]

[1] = system: TNF-α production in mouse peritoneal macrophages; assay: Inhibition of TNF-α in vitro, LPS/interferon-γ stimulated mouse peritoneal macrophages, Luminex detection; assay type: cell-based; conditions: Peritoneal macrophage, LPS 50 ng/mL + interferon-γ 10 U/mL, 18 hr, read-out: IC50, suppression of TNF-α in vitro
Experimental: 1 mL thioglycolate broth (5.0 g yeast extract, 15.0 g casitone or trypticase, 5.0 g dextrose, 2.5 g sodium chloride, 0.75 g L-cystine, 0.5 g sodium thioglycolate, 1.0 mg resazurin, and 0.75 g agar in 1.0 L distilled water) are injected into the peritoneal cavity of Balb/C female mice. At day 4 or 5 post-injection the mice are sacrificed and then injected i.p. with 4 mL RPMI-1640 medium (BioWhittaker) and the peritoneal macrophages are withdrawn by syringe. Mouse peritoneal microphages are counted with a hemocytometer and adjusted to 5×10^5 cells/well in 96-well plates in RPMI-1640 medium with 10% fetal bovine serum. 200 μL/well is plated in 96-well plates and the cells allowed to settle and adhere to the bottom of the well for at least 3 hr. The test compound or standard p38 kinase inhibitor is pre-treated using a series of 8 concentrations for 1 hr at 37° C. (20 μL/well). The cells are treated with a mixture of 50 ng/mL lipopolysaccharide (LPS) and 10 U/mL interferon-γ for 18 hr at 37° C. (20 μL/well). The conditioned media is harvested and assayed for TNF-α production using the Luminex procedure. […] Standards and samples are read on a Luminex machine. These intensity readings are then converted to picogram/milliliter units based on a 12-point standard curve created in duplicate using a four-parameter logistic regression method (Bio-Plex Manager 2.0, Bio-Rad), and the IC50 calculated.

[2] = system: TNF-α in synovial lavage fluid; assay: Effect on intra-articular LPS induced TNF-α, rat ankle synovial lavage fluid; assay type: in vivo; conditions: oral, female Lewis rats, intra-articular LPS 10 μg one hour after compound, lavage after two hours, read-out: ED50, inhibition of TNF-α synthesis in synovial lavage fluid
Experimental: Intra-articular injection of LPS into rat ankles induces the synthesis of TNF-α, which can be measured in synovial lavage fluid. High levels of TNF-α are detectable within 2 hours. Since the joint is the site where arthritis develops, this model can rapidly determine whether an orally administered compound has an effect on an inflammatory response in the synovium.
Six female Lewis rats (150-200 g) are place in each treatment group. The animals are given vehicle (1% NaCarboxymethylcellulose-0.25% Tween 80) or test compound (1 mg/kg, 3 mg/kg, 10 mg/kg, and 30 mg/kg) orally. One hour later, 10 μl LPS (10 μg) is administered intra-articularly into the right ankle of each rat, while the left ankle receives 10 μL of saline. After two hours, each ankle is lavaged with 100 μL of saline. The lavage is collected and stored at −80° C.
TNF-α is measured with a commercially available ELISA kit (R&D, RTA00). Treatment with Example 100 produced a dose response inhibition of TNF-α synthesis, as measured in the synovial lavage fluid with ED50=30 mg/kg.

[3] = system: TNFa-levels in the plasma; assay: Inhibition of TNF in vivo, LPS-challenged mice, plasma TNFa by ELISA; conditions: p.o., female Balb/c mice, LPS IP 400 ug/kg 1 hr after compound, plasma 1.5 hrs after LPS
Experimental: Compounds are administered p.o. (30, 10, 3 and 1 mg/kg) to female Balb/c mice (6 mice/dose). 1 hr following compound administration at 4 doses (P.O. at volume of 0.1 mL/mouse; vehicle: 1% NaCMC/0.25% Tween-80 in water); mice are given an IP-injection of LPS at 400 ug/kg. 1.5 hrs after LPS challenging, mice are anesthetized with isoflurane and blood is taken via cardiac puncture. TNFa-levels in the plasma are determined using ELISA kit from R&D Systems and dose response ED50 is determined.

Chain of p38 kinase enzyme (Q16539 whole entry): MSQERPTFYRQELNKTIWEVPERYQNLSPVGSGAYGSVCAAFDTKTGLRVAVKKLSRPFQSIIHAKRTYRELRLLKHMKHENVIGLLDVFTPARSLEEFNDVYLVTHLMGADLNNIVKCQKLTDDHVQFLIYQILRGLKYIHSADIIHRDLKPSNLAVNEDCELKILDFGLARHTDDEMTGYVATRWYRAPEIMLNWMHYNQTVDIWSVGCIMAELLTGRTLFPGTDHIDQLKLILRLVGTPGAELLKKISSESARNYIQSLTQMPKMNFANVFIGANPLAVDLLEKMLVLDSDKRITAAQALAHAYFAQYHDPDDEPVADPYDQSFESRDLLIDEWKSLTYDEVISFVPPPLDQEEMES

IC50 (p38 kinase enzyme) [nM]	IC50 [1] [nM]	SMILES	ED50 [2] [mg/kg]	TMED50, suppression of TNF in vivo [3] [mg/kg]
19		Cn1nc(C(C)(C)C)cc1NC(=O)Nc1cc(F)cc(OC2CCN(C(=O)C(C)(C)C)CC2)c1 [Example 70, 1-(5-tert-Butyl-2-methyl-2H-pyrazol-3-yl)-3-{3-[1-(2,2-dimethyl-propionyl)-piperidin-4-yloxy]-5-fluoro-phenyl}-urea]		
91		Cc1ccc(-n2nc(C(C)(C)C)cc2NC(=O)Nc2ccc(N3CCN(C(=O)C(C)(C)C)CC3)cc2)cc1 [Example 136]		
10	11	Cn1nc(C(C)(C)C)cc1NC(=O)Nc1ccc(CN2CCN(C(=O)c3c(F)cccc3F)CC2)cc1 [Example 100]	30	2.4
